Results reported in US7846935B2, “Furo[3,2-B]pyrrol-3-one derivatives and their use as cysteinyl proteinase inhibitors” (Amura Therapeutics Limited, priority 2006, dated 2010).
Read-outs that look alike come from different tables or passages of the source.

Assays:
human osteoclasts [1] = test: Human osteoclast resorption assay; assay type: cell-based
Method: Bone resorption was studied using a model where human osteoclast precursor cells were cultured on bovine bone slices for 9 days and allowed to differentiate into bone-resorbing osteoclasts. The formed mature osteoclasts were then allowed to resorb bone. The assay was performed by Pharmatest Services Ltd, Itainen Pitkakatu 4C, Turku, Finland. After the culture period, bone collagen degradation products were quantified from the culture medium as an index of bone resorption. Inhibitor compounds were added into the cell cultures after the differentiation period and their effects on the resorbing activity of mature osteoclasts were determined. The studies included a baseline group without added compounds and a positive control group where a potent cathepsin K inhibitor E-64 was added.
Human peripheral blood monocytes were suspended to culture medium and allowed to attach to bovine bone slices. The bone slices were transferred into 96-well tissue culture plates containing culture medium with appropriate amounts of important growth factors favouring osteoclast differentiation, including M-CSF, RANK-ligand and TGF-β. The cells were incubated in a CO2 incubator in humidified atmosphere of 95% air and 5% carbon dioxide at 37° C. At day 7 when osteoclast differentiation was complete, the culture medium was replaced with culture medium containing conditions favouring osteoclast activity. The cell culture was continued for an additional 2 days, during which the formed mature osteoclasts were allowed to resorb bone in the presence of vehicle, control inhibitor (E64) or test compounds. At the end of the culture, bone collagen degradation products released into the culture medium were determined using a commercially available ELISA method (CrossLaps® for culture, Nordic Bioscience, Herlev, Denmark) as an index of bone resorption (see Bagger, Y. Z. et al, J. Bone. Miner. Res. 14 (suppl. 1), S370).

Plasma incubations = assay type: in vitro ADME; conditions: 37° C., 25 μM
Method: Aliquots were removed at 2 and 60 minutes and quenched with an equal volume of cold acetonitrile. After mixing vigorously, the precipitated protein matter was removed by filtration (Multiscreen Solvinert filter plates, Millipore, Bedford, Mass., USA) and the filtrate analysed by reverse phase HPLC with mass spectrometric detection, using single ion monitoring of the [M+H]^+ species. Metabolic turnover was determined by comparison of peak areas from the ion chromatograms of the parent compound at 2 and 60 minutes and expressed as percent remaining at 1 hour.

[2] = Liver microsomal incubations; assay type: in vitro ADME; conditions: human liver microsomes, 25 μM, NADPH
Method: All liver microsome incubations were carried out in 50 mM potassium phosphate buffer at pH 7.4, with a final microsomal protein concentration of 0.5 mg/mL. […] In brief, compounds were added to the incubation buffer along with the liver microsomes and incubated at 37° C. for 10 minutes. The reaction was then initiated by the addition of NADPH, previously dissolved in incubation buffer, to give a final concentration of 1 mM and re-incubated at 37° C. Aliquots were removed at 2 and 60 minutes and quenched with an equal volume of cold acetonitrile. After mixing vigorously, the precipitated protein matter was removed by filtration (Multiscreen Solvinert filter plates, Millipore, Bedford, Mass., USA) and the filtrate analysed by reverse phase HPLC with mass spectrometric detection, using single ion monitoring of the [M+H]^+ species. Metabolic turnover was determined by comparison of peak areas from the ion chromatograms of the parent compound at 2 and 60 minutes and expressed as percent remaining at 1 hour.

[3] = biological target: T1, Human recombinant cathepsin K (Homo sapiens, UniProt P43235); test: In vitro cathepsin Ki inhibition measurements; assay type: biochemical; conditions: Table 1, read-out: In vitro Ki (nM) vs Cath K
T1 construct: B. Turk, Josef, Stefan Institute, Ljubljana, Slovenia
T1 sequence (P43235 115-329): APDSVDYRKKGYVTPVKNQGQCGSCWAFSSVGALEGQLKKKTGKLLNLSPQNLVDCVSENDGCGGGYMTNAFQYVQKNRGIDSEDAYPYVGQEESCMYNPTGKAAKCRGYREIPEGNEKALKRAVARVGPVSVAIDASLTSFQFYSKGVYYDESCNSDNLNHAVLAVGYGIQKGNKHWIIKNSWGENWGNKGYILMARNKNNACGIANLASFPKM
Method: Stock solutions of substrate or inhibitor were made up to 10 mM in 100% dimethylsulfoxide (DMSO) (Rathburns, Glasgow, U.K.) and diluted as appropriately required. In all cases the DMSO concentration in the assays was maintained at less than 1% (vol./vol.). The equilibrium inhibition constants (Ki^ss) for each compound were measured under steady-state conditions monitoring enzyme activity as a function of inhibitor concentration. The values were calculated on the assumption of pure competitive behaviour (Cornish-Bowden, A. Fundamentals of enzyme kinetics Portland Press; 1995, 93-128). Human recombinant cathepsin K (0.25 nM final; B. Turk, Josef, Stefan Institute, Ljubljana, Slovenia), was routinely assayed in 100 mM sodium acetate; pH 5.5 containing 1 mM EDTA, 10 mM L-cysteine and 1.8 μM Z-Leu-Arg-AMC ([S]=KM).
The apparent inhibition constant (Ki) for each compound was determined on the basis that inhibition was reversible and occurred by a pure-competitive mechanism. The Ki values were calculated, from the dependence of enzyme activity as a function of inhibitor concentration, by direct regression analysis (Prism v 3.02) using Equation 2 (Cornish-Bowden, A., 1995).
In situations where the apparent dissociation constant (Ki^app) approached the enzyme concentrations, the Ki^app values were calculated using a quadratic solution in the form described by Equation 3 (Morrison, J. F. Trends Biochem. Sci., 7, 102-105, 1982; Morrison, J. F. Biochim. Biophys. Acta, 185, 269-286, 1969; Stone, S. R. and Hofsteenge, J. Biochemistry, 25, 4622-4628, 1986).
Curves were fitted by non-linear regression analysis (Prism) using a fixed value for the enzyme concentration. Equation 4 was used to account for the substrate kinetics, where ‘Ki’ is the inhibition constant, ‘[So]’ is the initial substrate concentration and ‘KM^app’ is the apparent macroscopic binding (Michaelis) constant for the substrate (Morrison, 1982).

rat osteoclasts = test: Rat osteoclast resorption assay; assay type: cell-based
Method: Bone resorption was studied using a model where mature osteoclasts derived from rat bone were cultured on bovine bone slices for 3 days and allowed to resorb bone in the presence of inhibitor, positive control (E-64) or vehicle. More specifically, tibia, femori and humeri were removed from 1 day old rat pups. The endosteal surfaces of the bones were scraped with a scapelto release osteoclasts into the culture medium and the osteoclasts were allowed to attach to bovine bone slices. After the culture period, bone collagen degradation products were quantified from the culture medium as an index of bone resorption. The assay was performed by Pharmatest Services Ltd, Itäinen Pitkakatu 4C, Turku, Finland.

LogD determinations = assay type: physicochemical; conditions: 1-octanol/PBS; PBS pH 7.4/1-octanol, ion-count method
Method: LogD(PBS) determinations were performed in 96 well microtitre plates using a miniaturised “shake-flask” method. […] The plates were then capped and mixed vigorously for 1 hour on a microtitre plate shaker, after which they were left to stand, allowing the PBS and octanol phases to separate. The PBS layer was analysed by reverse phase HPLC with mass spectrometric detection, using single ion monitoring of the [M+H]^+ species.
Where AUCstd and AUCpbs are the peak areas from the standard and test ion chromatograms respectively.

human osteoclasts [4] = conditions: human osteoclast, literature value; cited from earlier work
[5] = human osteoclast bone resorption, read-out: Cell-based % Inh. @ 1 μM Human
[6] = human osteoclast, read-out: inhibition of human osteoclast activity
[7] = 1 μM, rat osteoclast bone resorption, read-out: Cell-based % Inh. @ 1 μM Rat
[8] = rat osteoclast, 1 μM per table 1, read-out: rat osteoclast data (inhibition)

Compound	Human Plasma Stability % rem. @ 1 h (Plasma incubations) [%]	HLM % rem. @ 1 h [2] [%]	Ki [3] [nM]	logD (LogD determinations)	inhibition at 1 µM (human osteoclasts [1]; [5]) [%]	inhibition at 1 µM (human osteoclasts [1]; [6]) [%]	inhibition at 1 µM (rat osteoclasts; [7]) [%]	inhibition at 1 µM (rat osteoclasts; [8]) [%]	Cell-based % Inh. @ 1 μM Human (Lit.) (human osteoclasts [4])
CC(C)C[C@H](NC(=O)c1ccc(N2CCN(C)CC2)cc1)C(=O)N1CC[C@H]2OCC(=O)[C@H]21 [EXAMPLE 1, 4-(4-methylpiperazin-1-yl)-N—((S)-4-methyl-1-oxo-1-((3aS,6aR)-3-oxodihydro-2H-furo[3,2-b]pyrrol-4(5H,6H,6aH)-yl)pentan-2-yl)benzamide, reference compound]	95	95			55				
CCCN1CCN(c2ccc(C(=O)N[C@@H](CC(C)C)C(=O)N3CC[C@H]4OCC(=O)[C@H]43)cc2)CC1 [EXAMPLE 3, N—((S)-4-methyl-1-oxo-1-((3aS,6aR)-3-oxo-dihydro-2H-furo[3,2-b]pyrrol-4(5H,6H,6aH)-yl)pentan-2-yl)-4-(4-propylpiperazin-1-yl)benzamide]	89	83	18	1.66	73	73 to 82	65	65	
CC(C)C[C@H](NC(=O)c1ccc(N2CCN(C(C)C)CC2)cc1)C(=O)N1CC[C@H]2OCC(=O)[C@H]21 [EXAMPLE 4, 4-(4-isopropylpiperazin-1-yl)-N—((S)-4-methyl-1-oxo-1-((3aS,6aR)-3-oxodihydro-2H-furo[3,2-b]pyrrol-4(5H,6H,6aH)-yl)pentan-2-yl)benzamide]	91	88	19	1.21	74	73 to 82	25	25	
COCCN1CCN(c2ccc(C(=O)N[C@@H](CC(C)C)C(=O)N3CC[C@H]4OCC(=O)[C@H]43)cc2)CC1 [EXAMPLE 5, 4-(4-(2-methoxyethyl)piperazin-1-yl)-N—((S)-4-methyl-1-oxo-1-((3aS,6aR)-3-oxodihydro-2H-furo[3,2-b]pyrrol-4(5H,6H,6aH)-yl)pentan-2-yl)benzamide]	98	90	29	0.9	57	57	65	65	
COCCN1CCC(c2ccc(C(=O)N[C@@H](CC(C)C)C(=O)N3CC[C@H]4OCC(=O)[C@H]43)cc2)CC1 [EXAMPLE 8, 4-(1-(2-methoxyethyl)piperidin-4-yl)-N—((S)-4-methyl-1-oxo-1-((3aS,6aR)-3-oxodihydro-2H-furo[3,2-b]pyrrol-4(5H,6H,6aH)-yl)pentan-2-yl)benzamide]	98	88	36	0.61	23	23	52	52	
CC(C)C[C@H](NC(=O)c1ccc(C(C)(C)C)cc1)C(=O)N1CC[C@H]2OCC(=O)[C@H]21 [prior art compound 23, reference compound]	75	70							Lit. 60%

Second part, led by results:

Human Plasma Stability % rem. @ 1 h (Plasma incubations) [%]	HLM % rem. @ 1 h [2] [%]	Ki [3] [nM]	logD (LogD determinations)	Compound	inhibition at 1 µM (human osteoclasts [1]; [5]) [%]	inhibition at 1 µM (human osteoclasts [1]; [6]) [%]	inhibition at 1 µM (rat osteoclasts; [7]) [%]	inhibition at 1 µM (rat osteoclasts; [8]) [%]	Cell-based % Inh. @ 1 μM Human (Lit.) (human osteoclasts [4])
93	88	15	0.74	CCN1CCN(c2ccc(C(=O)N[C@@H](CC(C)C)C(=O)N3CC[C@H]4OCC(=O)[C@H]43)cc2)CC1 [EXAMPLE 2, 4-(4-ethylpiperazin-1-yl)-N—((S)-4-methyl-1-oxo-1-((3aS,6aR)-3-oxodihydro-2H-furo[3,2-b]pyrrol-4(5H,6H,6aH)-yl)pentan-2-yl)benzamide]	58	58	40		
93	83	4	1.88	CC(C)C[C@H](NC(=O)c1ccc(N2CCN(C3CC3)CC2)cc1)C(=O)N1CC[C@H]2OCC(=O)[C@H]21 [EXAMPLE 6, 4-(4-cyclopropylpiperazin-1-yl)-N—((S)-4-methyl-1-oxo-1-((3aS,6aR)-3-oxodihydro-2H-furo[3,2-b]pyrrol-4(5H,6H,6aH)-yl)pentan-2-yl)benzamide]	74	73 to 82	22	22	
92	81	3	1.88	CC(C)C[C@H](NC(=O)c1ccc(N2CCN(C3CCC3)CC2)cc1)C(=O)N1CC[C@H]2OCC(=O)[C@H]21 [EXAMPLE 7, 4-(1-cyclobutylpiperazin-4-yl)-N—((S)-4-methyl-1-oxo-1-((3aS,6aR)-3-oxodihydro-2H-furo[3,2-b]pyrrol-4(5H,6H,6aH)-yl)pentan-2-yl)benzamide]	82	73 to 82	40	40	
93	82	8	1.99	CC(C)C[C@H](NC(=O)c1ccc(C2CCN(C3CC3)CC2)cc1)C(=O)N1CC[C@H]2OCC(=O)[C@H]21 [compound 9, 4-(1-cyclopropylpiperidin-4-yl)-N—((S)-4-methyl-1-oxo-1-((3aS,6aR)-3-oxodihydro-2H-furo[3,2-b]pyrrol-4(5H,6H,6aH)-yl)pentan-2-yl)benzamide]					
90	83	5	0.95	CC(C)C[C@H](NC(=O)c1ccc(C2CCN(C3CCC3)CC2)cc1)C(=O)N1CC[C@H]2OCC(=O)[C@H]21 [compound 10, 4-(1-cyclobutylpiperidin-4-yl)-N—((S)-4-methyl-1-oxo-1-((3aS,6aR)-3-oxodihydro-2H-furo[3,2-b]pyrrol-4(5H,6H,6aH)-yl)pentan-2-yl)benzamide]					
